# Laboratory results as given in PubChem BioAssay AID463251 (The Scripps Research Institute Molecular Screening Center, 2010).
# Active and inactive are the calls of the source. The limit is not given here; nearly all actives have IC50 up to about 7.3 µM.
# Target: Neuropeptides B/W receptor type 1 (Homo sapiens) (UniProt P48145)
# Experiment: human NPBW1 receptor blockade, IC50 – cell-based, fluorescence, dose response, late-stage follow-up (AID 463251)
# Settings: GPR7-expressing cells, fluorescence read-out, antagonist mode
# Neuropeptides B/W receptor type 1 (Homo sapiens), sequence (P48145 whole entry, looked up): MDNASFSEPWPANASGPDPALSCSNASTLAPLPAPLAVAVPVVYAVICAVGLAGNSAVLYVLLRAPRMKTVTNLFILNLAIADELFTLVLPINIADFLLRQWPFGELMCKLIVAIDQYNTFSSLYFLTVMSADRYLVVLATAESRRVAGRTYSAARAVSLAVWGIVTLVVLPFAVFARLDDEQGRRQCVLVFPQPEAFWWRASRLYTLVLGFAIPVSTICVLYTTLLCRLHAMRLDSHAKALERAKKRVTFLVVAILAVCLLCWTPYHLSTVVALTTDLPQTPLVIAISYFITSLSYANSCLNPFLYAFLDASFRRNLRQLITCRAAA
row,IC50,Compound
1,2300 nM,Cc1ccc(-n2ncc(Cl)c(Oc3ccc(CO)cc3)c2=O)cc1
2,1400 nM,COc1ccc(Oc2c(Cl)cnn(-c3cc(C)ccc3C)c2=O)cc1
3,724 nM,CCOc1ccc(Oc2c(Br)cnn(-c3ccc(C(C)C)cc3)c2=O)cc1
4,7500 nM,COc1ccc(Oc2c(C)cnn(-c3ccc(C(C)C)cc3)c2=O)cc1
5,5600 nM,COc1ccc(Oc2c(CO)cnn(-c3ccc(C(C)C)cc3)c2=O)cc1
6,2400 nM,C=Cc1cnn(-c2ccc(C(C)C)cc2)c(=O)c1Oc1ccc(OC)cc1
7,2700 nM,COC(=O)c1cnn(-c2ccc(C(C)C)cc2)c(=O)c1Oc1ccc(OC)cc1
8,6200 nM,COc1ccc(Oc2c(C=O)cnn(-c3ccc(C(C)C)cc3)c2=O)cc1
9,inactive,CC(C)c1ccc(-n2ncc(Cl)c(Oc3ccc(OC(F)(F)F)cc3)c2=O)cc1
10,1700 nM,COc1ccc(Oc2c(Cl)cnn(Cc3ccc(C)cc3)c2=O)cc1
12,1300 nM,COc1ccc(Oc2c(Cl)cnn(-c3cccc(C)c3C)c2=O)cc1
13,2200 nM,COc1ccc(Oc2c(Cl)cnn(-c3ccc(C)cc3)c2=O)cc1
14,1200 nM,CCOC(=O)c1ccc(-n2ncc(Cl)c(Oc3ccc(OC)cc3)c2=O)cc1
15,6200 nM,COc1ccc(Oc2c(C3CC3)cnn(-c3ccc(C)cc3)c2=O)cc1
16,4200 nM,COc1ccc(Oc2c(C#N)cnn(-c3ccc(C(C)C)cc3)c2=O)cc1

# Same assay, conditions: GPR7-expressing cells, fluorescence read-out, antagonist mode; at 20 µM (top of the series)
row,inhibition,Compound
1,inactive,O=C(C1CCCCN1Cc1ccccc1)N1CCN(c2ccc([N+](=O)[O-])cc2)CC1 (configuration not stated)
